Laboratory results reported in patent publication US8426174B2, “Method for the production of 2-butanol” (Butamax(TM) Advanced Biofuels LLC, priority 2007, dated 2013).
Read-outs that look alike come from different tables or passages of the source.

What was measured:
[1] = tested on: Lactobacillus plantarum PN0512; assay: Growth of L. plantarum PN0512 in the presence of butanols at different temperatures; type: cell-based; design: key to Growth at 37° C. / Growth at 30° C. / Growth at 25° C.: +: growth observed as an increase in OD600.; −: no growth observed, i.e. no change in OD600
Method: Tolerance levels of bacterial strain Lactobacillus plantarum PN0512 (ATCC # PTA-7727) were determined at 25° C., 30° C. and 37° C. as follows. The strain was cultured in S30L medium (i.e., 10 mM ammonium sulfate, 5 mM potassium phosphate buffer, pH 7.0, 50 mM MOPS, pH 7.0, 2 mM MgCl2, 0.7 mM CaCl2, 50 μM MnCl2, 1 μM FeCl3, 1 μM ZnCl2, 1.72 μM CuCl2, 2.53 μM CoCl2, 2.42 μM Na2MoO4, 2 μM thiamine hydrochloride, 10 mM glucose, and 0.2% yeast extract). An overnight culture in the absence of any test compound was started in 15 mL of the S30L medium in a 150 mL flask, with incubation at 37° C. in a shaking water bath. The next morning, the overnight culture was diluted into three 500 mL flasks containing 150 mL of fresh medium to an initial OD600 of about 0.08. Each flask was incubated in a shaking water bath, one each at 25° C., 30° C. and 37° C. Each large culture was allowed to acclimate at the test temperature for at least 0.5 h. […] Growth was followed by measuring OD600 for six hours after addition of the compounds.

E. coli strain MG1655 = tested on: E. coli strain MG1655
Method: A similar study was done with log-phase cultures of E. coli grown in a defined medium. E. coli strain MG1655 was allowed to grow overnight in MOPS 0.2% glucose medium (Teknova, Half Moon Bay, Calif.) at 42° C. or 28° C. The following day, the cultures were diluted into fresh medium and allowed to grow at the same temperature until in the log phase of growth. […] To these were added 10 μL of the log phase cultures and the tubes were immediately placed in shaking incubators at 42° C. or 28° C. or left on ice for 30 min. […] Then 5 μL of the undiluted treated cultures were spotted on LB agar plates. Subsequent 10-fold serial dilutions of 10^−3, 10^−4, 10^−5 and 10^−6 of the exposed cultures were done by serial pipetting of 20 μL, starting with the 10^−2 dilution cultures, into 180 μL of LB medium in the microplate, using a multi-channel pipette. Prior to each transfer, the cultures were mixed by pipetting up and down six times. Each dilution (5 μL) was spotted onto an LB plate using a multi-channel pipette and allowed to soak into the plate. The plates were inverted and incubated overnight at 37° C. […] Survival of 0% was recorded when no colonies in the spots of the undiluted or any of the serial dilutions were observed.

[2] = 1.5 % (w/v) 1-butanol, grown at 28° C.
[3] = 1.5 % (w/v) 1-butanol, grown at 42° C.
[4] = 2.0 % (w/v) 1-butanol, grown at 28° C.
[5] = 2.0 % (w/v) 1-butanol, grown at 42° C.
[6] = 3.0 % (w/v) 1-butanol, grown at 28° C.
[7] = 3.0 % (w/v) 1-butanol, grown at 42° C.
[8] = 4.0 % (w/v) 1-butanol, grown at 28° C.
[9] = 4.0 % (w/v) 1-butanol, grown at 42° C.
[10] = […] (w/v) 1-butanol, grown at 42° C.

## 1-butanol
[1]; 1.0 % w/v 1-butanol
  Growth at 37° C.: +
[1]; 1.2 % w/v 1-butanol
  Growth at 37° C.: +
[1]; 1.4 % w/v 1-butanol
  Growth at 37° C.: +
[1]; 1.5 % w/v 1-butanol
  Growth at 25° C.: +
  Growth at 30° C.: +
  Growth at 37° C.: +
[1]; 1.6 % w/v 1-butanol
  Growth at 37° C.: +
[1]; 1.8 % w/v 1-butanol
  Growth at 37° C.: +
[1]; 2.0 % w/v 1-butanol
  Growth at 25° C.: +
  Growth at 30° C.: +
  Growth at 37° C.: +
[1]; 2.1 % w/v 1-butanol
  Growth at 37° C.: +
[1]; 2.2 % w/v 1-butanol
  Growth at 37° C.: +
[1]; 2.3 % w/v 1-butanol
  Growth at 37° C.: +
[1]; 2.4 % w/v 1-butanol
  Growth at 25° C.: +
  Growth at 30° C.: +
  Growth at 37° C.: −^2
[1]; 2.7 % w/v 1-butanol
  Growth at 30° C.: +
  Growth at 37° C.: −
[1]; 2.9 % w/v 1-butanol
  Growth at 25° C.: +
  Growth at 30° C.: −
  Growth at 37° C.: −
[1]; 3.1 % w/v 1-butanol
  Growth at 25° C.: +
  Growth at 30° C.: −
  Growth at 37° C.: −
[1]; 3.2 % w/v 1-butanol
  Growth at 25° C.: −
  Growth at 30° C.: −
[1]; 3.3 % w/v 1-butanol
  Growth at 25° C.: −
[1]; 3.4 % w/v 1-butanol
  Growth at 25° C.: −
  Growth at 30° C.: −
[1]; 25° C.
  concentration in which growth was observed: 3.1%
[1]; 30° C.
  concentration in which growth was not observed: 2.9%
  concentration in which growth was observed: 2.7%
[1]; 37° C.
  concentration in which growth was not observed: 2.4%
  concentration in which growth was observed: 2.3%
[1]; […] w/v 1-butanol
  Growth at 37° C.: −
E. coli strain MG1655; 1.0 % (w/v) 1-butanol, grown at 28° C.
  % survival after 30 min exposure at 42° C.: 100%
E. coli strain MG1655; 1.0 % (w/v) 1-butanol, grown at 42° C.
  % survival after 30 min exposure at 42° C.: 100%
E. coli strain MG1655; [2]
  % survival after 30 min exposure at 28° C.: 100%
  % survival after 30 min exposure at 42° C.: 0%
E. coli strain MG1655; [3]
  % survival after 30 min exposure at 28° C.: 100%
  % survival after 30 min exposure at 42° C.: 0%
E. coli strain MG1655; [4]
  % survival after 30 min exposure at 28° C.: 100%
  % survival after 30 min exposure at 42° C.: 0%
E. coli strain MG1655; [5]
  % survival after 30 min exposure at 28° C.: 100%
  % survival after 30 min exposure at 42° C.: 0%
E. coli strain MG1655; [6]
  % survival after 30 min exposure at 28° C.: 0%
  % survival after 30 min exposure at 42° C.: 0%
E. coli strain MG1655; 3.0 % (w/v) 1-butanol, grown at 29° C.
  % survival after 30 min exposure at 0° C.: 100%
E. coli strain MG1655; [7]
  % survival after 30 min exposure at 0° C.: 100%
  % survival after 30 min exposure at 28° C.: 0%
  % survival after 30 min exposure at 42° C.: 0%
E. coli strain MG1655; [8]
  % survival after 30 min exposure at 28° C.: 0%
  % survival after 30 min exposure at 42° C.: 0%
E. coli strain MG1655; 4.0 % (w/v) 1-butanol, grown at 29° C.
  % survival after 30 min exposure at 0° C.: 100%
E. coli strain MG1655; [9]
  % survival after 30 min exposure at 0° C.: 100%
  % survival after 30 min exposure at 28° C.: 0.001%
  % survival after 30 min exposure at 42° C.: 0%
E. coli strain MG1655; 5.0 % (w/v) 1-butanol, grown at 29° C.
  % survival after 30 min exposure at 0° C.: 50%
E. coli strain MG1655; 5.0 % (w/v) 1-butanol, grown at 42° C.
  % survival after 30 min exposure at 0° C.: 10%
E. coli strain MG1655; 6.0 % (w/v) 1-butanol, grown at 29° C.
  % survival after 30 min exposure at 0° C.: 1%
E. coli strain MG1655; 6.0 % (w/v) 1-butanol, grown at 42° C.
  % survival after 30 min exposure at 0° C.: 1%
E. coli strain MG1655; […] (w/v) 1-butanol, grown at 28° C.
  % survival after 30 min exposure at 42° C.: 0%
E. coli strain MG1655; […] (w/v) 1-butanol, grown at 29° C.
  % survival after 30 min exposure at 0° C.: 100%
E. coli strain MG1655; [10]
  % survival after 30 min exposure at 0° C.: 100%
  % survival after 30 min exposure at 42° C.: 0%
